Experimental data from patent US9663530B2, “5-oxa-2-azabicyclo[2.2.2]OCTAN-4-yl and 5-oxa-2-azabicyclo[2.2.1]heptan-4-yl derivatives” (Hoffmann-La Roche Inc., priority 2014, dated 2017).

Assays:
mouse TAAR1 = mouse TAAR1 (Mus musculus (Mouse), UniProt Q923Y8); assay: Radioligand binding assay on mouse TAAR1; details: mouse TAAR1 (first value of the cell); membranes of HEK-293 cells stably expressing mouse TAAR1; read-out: Ki (μM) mouse/rat
Procedure: (§1) Construction of TAAR Expression Plasmids and Stably Transfected Cell Lines
(§2) For the construction of expression plasmids the coding sequences of human, rat and mouse TAAR 1 were amplified from genomic DNA essentially as described by Lindemann et al.. The Expand High Fidelity PCR System (Roche Diagnostics) was used with 1.5 mM Mg^2+ and purified PCR products were cloned into pCR2.1-TOPO cloning vector (Invitrogen) following the instructions of the manufacturer. PCR products were subcloned into the pIRESneo2 vector (BD Clontech, Palo Alto, Calif.), and expression vectors were sequence verified before introduction in cell lines.
(§3) HEK293 cells (ATCC # CRL-1573) were cultured essentially as described by Lindemann et al. (2005). For the generation of stably transfected cell lines HEK293 cells were transfected with the pIRESneo2 expression plasmids containing the TAAR coding sequences (described above) with Lipofectamine 2000 (Invitrogen) according to the instructions of the manufacturer, and 24 hrs post transfection the culture medium was supplemented with 1 mg/ml G418 (Sigma, Buchs, Switzerland). After a culture period of about 10 d clones were isolated, expanded and tested for responsiveness to trace amines (all compounds purchased from Sigma) with the cAMP Biotrak Enzyme immunoassay (EIA) System (Amersham) following the non-acetylation EIA procedure provided by the manufacturer.
Radioligand Binding Assay on Mouse TAAR1
(§4) Membrane Preparation and Radioligand Binding.
HEK-293 cells stably expressing mouse TAAR1 were maintained at 37° C. and 5% CO2 in DMEM high glucose medium, containing fetal calf serum (10%, heat inactivated for 30 min at 56° C.), penicillin/streptomycin (1%), and 375 μg/ml geneticin (Gibco). Cells were released from culture flasks using trypsin/EDTA, harvested, washed twice with ice-cold PBS (without Ca^2+and Mg^2+), pelleted at 1,000 rpm for 5 min at 4° C., frozen and stored at −80° C. Frozen pellets were suspended in 20 ml HEPES-NaOH (20 mM, pH 7.4) containing 10 mM EDTA and homogenized with a Polytron (PT 6000, Kinematica) at 14,000 rpm for 20 s. The homogenate was centrifuged at 48,000×g for 30 min at 4° C. Subsequently, the supernatant was removed and discarded, and the pellet resuspended in 20 ml HEPES-NaOH (20 mM, pH 7.4) containing 0.1 mM EDTA using the Polytron (20 s at 14,000 rpm). This procedure was repeated and the final pellet resuspended in HEPES-NaOH containing 0.1 mM EDTA and homogenized using the Polytron. Typically, aliquots of 2 ml membrane portions were stored at −80° C. With each new membrane batch the dissociation constant (Kd) was determined via a saturation curve. The TAAR1 radioligand ^3[H]-(S)-4-[(ethyl-phenyl-amino)-methyl]-4,5-dihydro-oxazol-2-ylamine (described in WO 2008/098857) was used at a concentration equal to the calculated Kd value, that was usually around 0.7 nM, resulting in the binding of approximately 0.5% of the radioligand and a specific binding representing approximately 70% of the total binding. Nonspecific binding was defined as the amount of ^3[H]-(S)-4-[(ethyl-phenyl-amino)-methyl]-4,5-dihydro-oxazol-2-ylamine bound in the presence of 10 μM unlabeled ligand. All compounds were tested at a broad range of concentrations ([…]) in duplicates. The test compounds (20 […]μl/well) were transferred into a 96 deep well plate (TreffLab), and 180 μl of HEPES-NaOH (20 mM, pH 7.4) containing MgCl2 (10 mM) and CaCl2 (2 mM) (binding buffer), 300 μl of the radioligand ^3[H]-(S)-4-[(ethyl-phenyl-amino)-methyl]-4,5-dihydro-oxazol-2-ylamine at a concentration of 3.3×Kd in nM and 500 μl of the membranes (resuspended at […]) added. The 96 deep well plates were incubated for 1 hr at 4° C. Incubations were terminated by rapid filtration through Unifilter-96 plates (Packard Instrument Company) and glass filters GF/C (Perkin Elmer) presoaked for 1 hr in polyethylenimine (0.3%) and washed 3 times with 1 ml of cold binding buffer. […]

rat TAAR1 = rat TAAR1 (Rattus norvegicus (Rat), UniProt Q923Y9); assay: Radioligand binding assay on rat TAAR1; details: rat TAAR1 (second value of the cell); membranes of HEK-293 cells stably expressing rat TAAR1; read-out: Ki (μM) mouse/rat
Sequence of rat TAAR1 (Q923Y9 whole entry): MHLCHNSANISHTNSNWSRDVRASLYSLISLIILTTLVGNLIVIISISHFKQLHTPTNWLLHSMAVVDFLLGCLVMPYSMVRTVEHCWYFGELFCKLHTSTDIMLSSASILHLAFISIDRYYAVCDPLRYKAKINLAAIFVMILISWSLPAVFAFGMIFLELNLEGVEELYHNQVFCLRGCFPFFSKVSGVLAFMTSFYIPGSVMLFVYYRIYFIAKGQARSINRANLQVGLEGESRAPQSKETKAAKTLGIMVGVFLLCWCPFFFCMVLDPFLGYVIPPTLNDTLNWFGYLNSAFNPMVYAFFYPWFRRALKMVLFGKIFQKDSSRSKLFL
Procedure: as §1, §2, §3
Radioligand Binding Assay on Rat TAAR1
as §4
HEK-293 cells stably expressing rat TAAR1 were maintained at 37° C. and 5% CO2 in DMEM high glucose medium, containing fetal calf serum (10%, heat inactivated for 30 min at 56° C.), penicillin/streptomycin (1%), and 375 μg/ml geneticin (Gibco). Cells were released from culture flasks using trypsin/EDTA, harvested, washed twice with ice-cold PBS (without Ca^2+ and Mg^2+), pelleted at 1,000 rpm for 5 min at 4° C., frozen and stored at −80° C. Frozen pellets were suspended in 20 ml HEPES-NaOH (20 mM, pH 7.4) containing 10 mM EDTA and homogenized with a Polytron (PT 6000, Kinematica) at 14,000 rpm for 20 s. The homogenate was centrifuged at 48,000×g for 30 min at 4° C. Subsequently, the supernatant was removed and discarded, and the pellet resuspended in 20 ml HEPES-NaOH (20 mM, pH 7.4) containing 0.1 mM EDTA using the Polytron (20 s at 14,000 rpm). This procedure was repeated and the final pellet resuspended in HEPES-NaOH containing 0.1 mM EDTA and homogenized using the Polytron. Typically, aliquots of 2 ml membrane portions were stored at −80° C. With each new membrane batch the dissociation constant (Kd) was determined via a saturation curve. […] Nonspecific binding was defined as the amount of ^3[H]-(S)-4-[(ethyl-phenyl-amino)-methyl]-4,5-dihydro-oxazol-2-ylamine bound in the presence of 10 μM unlabeled ligand. All compounds were tested at a broad range of concentrations ([…]) in duplicates. The test compounds (20 […]μl/well) were transferred into a 96 deep well plate (TreffLab), and 180 μl of HEPES-NaOH (20 mM, pH 7.4) containing MgCl2 (10 mM) and CaCl2 (2 mM) (binding buffer), 300 μl of the radioligand ^3[H]-(S)-4-[(ethyl-phenyl-amino)-methyl]-4,5-dihydro-oxazol-2-ylamine at a concentration of 3.3×Kd in nM and 500 μl of the membranes (resuspended at 50 μg protein per ml) added. The 96 deep well plates were incubated for 1 hr at 4° C. Incubations were terminated by rapid filtration through Unifilter-96 plates (Packard Instrument Company) and glass filters GF/C (Perkin Elmer) presoaked for 1 hr in polyethylenimine (0.3%) and washed 3 times with 1 ml of cold binding buffer. After addition of 45 μl of Microscint 40 (PerkinElmer) the Unifilter-96 plate was sealed and after 1 hr the ratioactivity counted using a TopCount Microplate Scintillation Counter (Packard Instrument Company).

Sequence of mouse TAAR1 (Q923Y8 whole entry): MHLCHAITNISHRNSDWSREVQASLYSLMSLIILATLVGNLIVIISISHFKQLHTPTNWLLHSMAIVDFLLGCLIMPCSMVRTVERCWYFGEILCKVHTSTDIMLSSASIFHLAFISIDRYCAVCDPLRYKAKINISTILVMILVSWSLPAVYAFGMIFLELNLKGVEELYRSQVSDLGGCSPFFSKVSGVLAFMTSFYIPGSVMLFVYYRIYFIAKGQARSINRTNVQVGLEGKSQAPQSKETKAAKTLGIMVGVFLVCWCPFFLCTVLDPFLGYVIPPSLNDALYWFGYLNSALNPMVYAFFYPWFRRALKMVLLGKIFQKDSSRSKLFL

Question: Which results are given for O=C(Nc1ccc(C[C@]23CN[C@H](CO2)C3)cc1)Nc1ccc(C(F)(F)F)cc1 [Example 8, 1-[4-[[(1S,4S)-5-Oxa-2-azabicyclo[2.2.1]heptan-4-yl]methyl]phenyl]-3-[4-(trifluoromethyl)phenyl]urea]?
Answer: Ki (mouse TAAR1): 0.846 µM; Ki (rat TAAR1): 0.0442 µM

Question: With O=C(Nc1ccc(C[C@]23CN[C@H](CO2)C3)cc1)Nc1ccccc1Cl [Example 9, 1-(2-Chlorophenyl)-3-[4-[[(1S,4S)-5-oxa-2-azabicyclo[2.2.1]heptan-4-yl]methyl]phenyl]urea] as the compound, how does the Ki (mouse TAAR1) read?
Answer: The Ki was 1.63 µM.

Question: What about the Ki (rat TAAR1) of the same compound?
Answer: The Ki was 0.53 µM.

Question: O=C(Nc1ccc(C[C@]23CN[C@H](CO2)C3)cc1)Nc1cccc(C(F)(F)F)c1 [Example 10, 1-[4-[[(1S,4S)-5-Oxa-2-azabicyclo[2.2.1]heptan-4-yl]methyl]phenyl]-3-[3-(trifluoromethyl)phenyl]urea] was tested. Which Ki (mouse TAAR1) did it give?
Answer: Its Ki is 0.365 µM.

Question: And the Ki (rat TAAR1)?
Answer: The Ki was 0.0209 µM.

Question: How did the Ki (mouse TAAR1) turn out when O=C(Nc1ccc(C[C@]23CN[C@H](CO2)C3)cc1)c1ccc(Cl)cc1 [Example 15, 4-Chloro-N-[4-[[(1S,4S)-5-oxa-2-azabicyclo[2.2.1]heptan-4-yl]methyl]phenyl]benzamide] was run?
Answer: Its Ki is 0.0853 µM.

Question: And the Ki (rat TAAR1)?
Answer: Its Ki is 0.0505 µM.

Question: Which results are given for CCCc1n[nH]c(C(=O)Nc2ccc(C[C@]34CN[C@H](CO3)C4)cc2)c1Cl [Example 16, 4-Chloro-N-[4-[[(1 S,4S)-5-oxa-2-azabicyclo[2.2.1]heptan-4-yl]methyl]phenyl]-3-propyl-1H-pyrazole-5-carboxamide]?
Answer: Ki (mouse TAAR1): 0.476 µM; Ki (rat TAAR1): 0.277 µM

Question: O=C(Nc1ccc(C[C@]23CN[C@H](CO2)C3)cc1)c1cccc(Cl)c1 [Example 17, 3-Chloro-N-[4-[[(1S,4S)-5-oxa-2-azabicyclo[2.2.1]heptan-4-yl]methyl]phenyl]benzamide] was tested. Which Ki (mouse TAAR1) did it give?
Answer: Its Ki is 0.112 µM.

Question: And the Ki (rat TAAR1)?
Answer: The Ki was 0.229 µM.

Question: What does the source list for O=C(Nc1ccc(C[C@]23CN[C@H](CO2)C3)cc1)c1ccnc(C(F)(F)F)c1 [Example 18, N-[4-[[(1S,4S)-5-Oxa-2-azabicyclo[2.2.1]heptan-4-yl]methyl]phenyl]-2-(trifluoromethyl)pyridine-4-carboxamide]?
Answer: Ki (mouse TAAR1): 0.238 µM; Ki (rat TAAR1): 0.354 µM

Question: Which Ki (mouse TAAR1) does the source give for CCOc1ccc(C(=O)Nc2ccc(C[C@]34CN[C@H](CO3)C4)cc2)cc1 [Example 19, 4-Ethoxy-N-[4-[[(1 S,4S)-5-oxa-2-azabicyclo[2.2.1]heptan-4-yl]methyl]phenyl]benzamide] here?
Answer: Its Ki is 0.334 µM.

Question: What about the Ki (rat TAAR1) of the same compound?
Answer: Its Ki is 0.063 µM.

Question: Which results are given for Clc1ccc(Nc2ccc([C@@]34CN[C@@H](CO3)C4)cc2)nc1 [Example 20, 5-Chloro-N-[4-[(1R,4S)-5-oxa-2-azabicyclo[2.2.1]heptan-4-yl]phenyl]pyridin-2-amine]?
Answer: Ki (mouse TAAR1): 0.0062 µM; Ki (rat TAAR1): 1.78 µM

Question: Which Ki (mouse TAAR1) does the source give for O=C(Nc1ccc(C[C@@]23CN[C@@H](CO2)C3)cc1)c1ccc(Cl)cc1 [Example 21, 4-Chloro-N-[4-[[(1R,4R)-5-oxa-2-azabicyclo[2.2.1]heptan-4-yl]methyl]phenyl]benzamide] here?
Answer: The Ki was 0.003 µM.

Question: And the Ki (rat TAAR1)?
Answer: The Ki was 0.0626 µM.

Question: With O=C(Nc1ccc(C[C@@]23CN[C@@H](CO2)C3)cc1)Nc1ccc(C(F)(F)F)cc1 [Example 22, 1-[4-[[(1R,4R)-5-Oxa-2-azabicyclo[2.2.1]heptan-4-yl]methyl]phenyl]-3-[4-(trifluoromethyl)phenyl]urea] as the compound, how does the Ki (mouse TAAR1) read?
Answer: Its Ki is 0.0126 µM.

Question: And the Ki (rat TAAR1)?
Answer: The Ki was 0.0237 µM.

Question: How did the Ki (mouse TAAR1) turn out when O=C(Nc1ccc(Cl)cc1)Nc1ccc(C[C@@]23CN[C@@H](CO2)C3)cc1 [Example 23, 1-(4-Chlorophenyl)-3-[4-[[(1R,4R)-5-oxa-2-azabicyclo[2.2.1]heptan-4-yl]methyl]phenyl]urea] was run?
Answer: The Ki was 0.0137 µM.

Question: What about the Ki (rat TAAR1) of the same compound?
Answer: Its Ki is 0.0375 µM.

Question: Which Ki (mouse TAAR1) does the source give for O=C(Nc1ccc(C[C@@]23CN[C@@H](CO2)C3)cc1)Nc1cccc(Cl)c1 [Example 24, 1-(3-Chlorophenyl)-3-[4-[[(1R,4R)-5-oxa-2-azabicyclo[2.2.1]heptan-4-yl]methyl]phenyl]urea] here?
Answer: Its Ki is 0.0086 µM.

Question: What about the Ki (rat TAAR1) of the same compound?
Answer: The Ki was 0.0614 µM.

Question: O=C(Nc1ccc(C[C@]23CN[C@H](CO2)C3)cc1)c1ccc(OCC2CC2)cc1 [Example 25, 4-(Cyclopropylmethoxy)-N-[4-[[(1S,4S)-5-oxa-2-azabicyclo[2.2.1]heptan-4-yl]methyl]phenyl]benzamide] was tested. Which Ki (mouse TAAR1) did it give?
Answer: The Ki was 0.168 µM.

Question: And the Ki (rat TAAR1)?
Answer: The Ki was 0.0175 µM.

Question: How did the Ki (mouse TAAR1) turn out when CCOc1ccc(C(=O)Nc2ccc(C[C@]34CN[C@H](CO3)C4)cc2)cn1 [Example 26, 6-Ethoxy-N-[4-[[(1S,4S)-5-oxa-2-azabicyclo[2.2.1]heptan-4-yl]methyl]phenyl]pyridine-3-carboxamide] was run?
Answer: The Ki was 1.14 µM.

Question: What about the Ki (rat TAAR1) of the same compound?
Answer: The Ki was 0.441 µM.

Question: O=C(Nc1ccc(C[C@]23CN[C@H](CO2)C3)cc1)c1ccc(OCC(F)(F)F)nc1 [Example 27, N-[4-[[(1 S,4S)-5-Oxa-2-azabicyclo[2.2.1]heptan-4-yl]methyl]phenyl]-6-(2,2,2-trifluoroethoxy)pyridine-3-carboxamide] was tested. Which Ki (mouse TAAR1) did it give?
Answer: Its Ki is 0.0552 µM.

Question: What about the Ki (rat TAAR1) of the same compound?
Answer: Its Ki is 0.013 µM.

Question: O=C(Nc1ccc(C[C@]23CN[C@H](CO2)C3)cc1)c1cnc(C2CC2)nc1 [Example 28, 2-Cyclopropyl-N-[4-[[(1S,4S)-5-oxa-2-azabicyclo[2.2.1]heptan-4-yl]methyl]phenyl]pyrimidine-5-carboxamide] was tested. Which Ki (mouse TAAR1) did it give?
Answer: The Ki was 0.36 µM.

Question: And the Ki (rat TAAR1)?
Answer: Its Ki is 1.58 µM.

Question: O=C(Nc1ccc(C[C@]23CN[C@H](CO2)C3)cc1)c1[nH]nc(C2CC2)c1Cl [Example 29, 4-Chloro-3-cyclopropyl-N-[4-[[(1 S,4S)-5-oxa-2-azabicyclo[2.2.1]heptan-4-yl]methyl]phenyl]-1H-pyrazole-5-carboxamide] was tested. Which Ki (mouse TAAR1) did it give?
Answer: The Ki was 0.476 µM.

Question: What about the Ki (rat TAAR1) of the same compound?
Answer: The Ki was 0.633 µM.
